According to patent publication US20260069534A1, “ORAL DELIVERY OF ACTIVE COMPOUNDS FOR TREATING GLYCOGEN STORAGE DISEASES” (LYOTROPIC DELIVERY SYSTEMS LTD., priority 2022, published 2026):

Columns and labels:
[1] = Pharmacokinetics, 3-day oral dose escalation study in APBD patients; assay type: in vivo, human; conditions: for Cmax: human, plasma, oral, 340 mg, per os in formulation LDS-C, 170, 255, 340 mg on days 1, 2, 3
Method: (§1) Compound GHF-201 was administered to APBD modeling mice as a 5% DMSO solution, IV injected twice a week at a dose of 250 mg/kg, equivalent to a daily dose of 70 mg/kg. Daily injection was avoided due to the relatively long duration of treatment (6 months), which might have led to excessive scarring. Following positive results in the murine model, compound GHF-201 was administered to two APBD patients as a part of a 3-day oral dose escalation study, during which clinical safety and pharmacokinetic profiles were determined.
Blood was drawn during three consecutive days according to the following regime—pre-administration and 0.5 h, 1 h. 1.5 h, 2 h, and 4 h post-administration. Compound GHF-201 was administered as formulation LDS-C. 7.15% Compound GHF-201. Active ingredient doses were 170 mg on the first day, 255 mg on the second day, and 340 mg on the third day.
Following blood drawing, plasma was separated by centrifugation (up to 1 h from drawing) at 2000 g for 10 min. at 4° C. Compound GHF-201 levels in plasma (supernatant) samples were determined by LC-Mass Spectrometry (LC-MS/MS) using Sciex Triple Quad™ 5500 mass spectrometer. 100 μl of plasma were collected and extracted in 500 μl acetonitrile solution (acetonitrile/water 1:1 v/v). Calibration curves were made with 0.1, 10, 100, and 1000 ng/ml compound GHF-201 in 1 mg/ml solutions of 4-tert-butyl-2-(4H-1,2,4-triazol-4-yl) phenol (ChemBridge) as internal standard (IS). The samples were dissolved in 1 mg/ml IS solutions and spiked with 0-1000 ng/ml of compound GHF-201 to generate standard curves from which plasma levels of compound GHF-201 were determined.

[2] = Pharmacokinetic profile in APBD modeling mice, IV 250 mg/kg; conditions: in vivo
Method: FIGS. 9A-9C are pharmacokinetic profiles of Compound GHF-201 administered per os in formulation LDS-C to APBD patient 1 (FIG. 9A) and IV at 250 mg/kg to n=3 APBD modeling mice (FIG. 9B). Active ingredient doses in days 1, 2, and 3 were 170 mg, 255 mg, and 340 mg, respectively. Encircled in A, values blown up in FIG. 9C.
as §1
Following the FDA human equivalent dose calculation, mouse dose can be converted to human dose by dividing by 12. […] Divided by 12, 4,700 ng/mL yields 392 ng/mL. […] Therefore, it was assumed that a human equivalent, or higher, dose in patients is at least as effective as the equivalent dose in mice.

[3] = Tissue penetration / distribution in APBD model mice (LC-MS/MS); assay type: in vivo
Method: FIGS. 8A-8B show tissue penetration test results in APBD model mice for Compound GHF-201 in non-formulated form (FIG. 8A) and formulated in LDS-C formulation (FIG. 8B). For pharmacokinetic analysis, 100 μl serum as well as brain, kidney, hind limb quad muscle, heart, liver, and spleen tissues were collected, homogenized, and extracted with acetonitrile following established guidelines (Kapetanovic et al, 2006). Calibration curves were made with 0, 1, 10, 100, and 1,000 ng/ml GHF-201 in 1 mg/ml solutions of 4-tert-butyl-2-(4H-1,2,4-triazol-4-yl) phenol (ChemBridge) as internal standard (IS). Tissue samples were then dissolved in 1 mg/ml IS solutions and spiked with 0-1,000 ng/ml GHF-201 to generate standard curves from which tissue levels of GHF201 were determined. Samples were analyzed by the LC-MS/MS Sciex Triple Quad™ 5500 mass spectrometer.
Gbeys/ys mice injected subcutaneously with 250 mg/kg GHF-201 were sacrificed 30, 60, 90, and 210 min post injection, and the indicated tissues were removed, as well as 100 μL of serum drawn. […] Results obtained from n=3 mice at each time point.
The distribution and kinetic parameters of GHF-201 was assessed in different tissues.

mice = assay: 14-day safety study in mice; assay type: in vivo; conditions: 14-day study
Method: Pharmacokinetically, subcutaneously injected in mice, compound GHF-201 had high dwell time and persistence (>3 h) in the liver, intermediate levels and persistence in brain and heart (1 h) and negligible distribution to the muscle. […] The ameliorative effect on extension reflex is especially important since the patient correlate is pyramidal tetraparesis or upper motor neuron signs which are one of the main neurological deficiencies in APBD patients.

[4] = subcutaneously injected in mice

**Q.** With `COCCN(Cc1sccc1C)C(=O)c1cc(C)[nH]c(=O)c1` [Compound GHF-201] as the compound, how does the Cmax ([1]; patient 1) read?
**A.** The Cmax was 894 ng/mL.

**Q.** And the Cmax ([1]; patient 2)?
**A.** Its Cmax is 883 ng/mL.

**Q.** And the “Areas Under the Curve (AUC)” value ([1]; patients 1 and 2, sum of trapezoids)?
**A.** Its value is “correlated with the level of compound GHF-201 administered”.

**Q.** And the “pre-administration levels in the plasma” value ([1]; patients, three consecutive days)?
**A.** Its value is “increased every consecutive day”.

**Q.** And the Human-equivalent Cmax (mouse Cmax divided by 12) ([2]; intravenous, 250 mg/kg, FDA human equivalent dose calculation)?
**A.** Its Human-equivalent Cmax (mouse Cmax divided by 12) is 392 ng/mL.

**Q.** And the Cmax ([2]; mouse, APBD modeling mice, IV 250 mg/kg)?
**A.** The Cmax was 4700 ng/mL.

**Q.** What about the “bioavailability increase in all tissues” value ([3]; orally administered in formulation vs subcutaneous injections of GHF-201 in solution, APBD model mice) of the same compound?
**A.** The value was “at least three-fold”.

**Q.** What about the “distribution to the muscle” value [3, 4] of the same compound?
**A.** Its value is “negligible”.

**Q.** What about the “dwell time and persistence in the liver” value [3, 4] of the same compound?
**A.** Its value is greater than 3 h.

**Q.** And the “persistence in brain and heart” value [3, 4]?
**A.** Its value is 1 h.

**Q.** And the safety (mice)?
**A.** Its safety is “safe”.
